Data: US4514330A, “Carbon-7-substituted atinomycin D analogue” (Trustees of Boston University, priority 1983, dated 1985)
Converted amounts (≈) assume the structure as drawn. Read-outs that look alike come from different tables or passages of the source. Starred links: 1 amine or outer side, 2 acyl side, 3 side chain; linkers in the order of their positions; H or OH if unused. Positions of bridges follow the written chain, without caps; N, C: chain ends. Non-standard residues stand in square brackets, D forms with d. Residues, ends and D or L forms follow the SMILES beside them. Chains are numbered I, II in the order given. Actinocin(9to1) = Cc1c2oc3c(C)ccc(C(=O)[*:1])c3nc-2c(C(=O)[*:2])c(N)c1=O; NMeV = CN[C@H](C(=O)O)C(C)C; Sar = CNCC(=O)O

Assays:
[1] = test system: DNA-dependent RNA synthesis; conditions: submicromolar concentrations; cited from earlier work
[2] = test system: spleen, liver, kidney, large and small intestine, heart, lung, pancreas and adrenals; experiment: Gross pathology of organ sections at LD10 (MTD) dose levels, day 14; assay type: in vivo, CDF1 mice
Procedure: In an additional experiment, two animals at LD10 (or MTD) dose levels were sacrificed on day 14, and the organ sections from these animals were evaluated for gross pathology in the following way. Organs, e.g., spleen, liver, kidney, large and small intestine, heart, lung, pancreas and adrenals, were removed and fixed in 10% […] buffer formalin. They were kept immersed for 2 weeks; tissues were dehydrated through graded alcohols (70, 90, 95 and 100%), cleared in cedarwood oil and embedded in paraffin. Sections were cut in 7 μm and mounted with gelatin on microscope slides. After drying, sections were stained with Mayer's hematoxylin and eosin and examined with light microscopy.

patients = conditions: attributed to lack of metabolism / excretion; listed as AMD; cited from earlier work
DNA [3] = experiment: Thermal denaturation of DNA (ΔTm), stabilization of DNA helical structure on drug binding; set-up: species or system calf thymus
Procedure: Thermal denaturation studies were carried out according to the procedure described in J. Med. Chem., Vol. 24, p. 1052 (1981). The ΔTm values in Table II give a measure of stabilization of DNA helical structure as a consequence of drug binding.
^a ΔTm = m of DNAdrug complex minus m of DNA.
Concentraiton of drug, 1.4 × 10^-4 M; of DNA (P), 1.4 ×
10^-3 M in 0.01 M phosphate buffer (pH 7.0), 5 × 10^-3 M in
EDTA and 5% dimethyl sulfoxide.
^d Highest dose tested. These values are derived at high temperatur
(67°-75° C.) and may not always correlate with the results
of other DNA-binding studies (e.g., absorptiometric or circular dichroic).
Melting points were obtained with a Thomas-Hoover melting point apparatus at a heating rate of 2° C./min. Column chromatography was accomplished with silica gel powder (Baker No. 3405, 60-20 mesh) or acid alumina (Woelm grade 1). Limited gel-filtration work was done on Sephadex LH-20, particle size 25-100 μm (Pharmacia Fine Chemicals). Thin-layer chromatography was performed on silica gel plates (E. M. Laboratories, Inc.). Solvent systems used were (A) butanol-formic acid-H2 O (75:13:12), (B) EtOAc-acetone (3:1), and (C) Cifferri, the organic phase of the mixture EtOAc-MeOH-H2 O (20:1:20). High-performance liquid chromatography was carried out on a Varian Model 5020 gradient liquid chromatograph equipped with CD-111L chromatography data system and fitted with Varian reversed-phase C18 column with isocratic solvent systems, CH3 -CN-5 mM NH4 OAc buffer, pH 6.4 (68:32 or 62:38), pressure 80-140 atm, flow rate 1.5 mL/min, with UV-visible variable and fixed wavelength dual detectors at 254 and 466 nm. Spectra were determined on the following instruments: IR spectra were obtained with a Perkin-Elmer Model 237 Infra Cord with KBr micropellets or chloroform solutions; UV-visible spectra were obtained on a Gilford 250 spectrophotometer, which, with the addition of a base-line reference compensator (Analog Multiplexer 6064) and thermoprogrammer, auto four cell programmer and thermoelectric cell holder 2577, was used to obtain thermal denaturation curves; NMR spectra were obtained on a JOEL FQ-90-90MHZ spectrometer equipped with Fourier transform; and CD spectra were obtained on a Cary 61 spectrophotometer. All elemental analyses were within ±0.4% of the theoretical values. Actinomycin D, batch no. NCS 3053, lot L554651-0-10, was provided by Natural Products Branch, National Cancer Institute, Silver Spring, Md. Calf thymus DNA type 1 was purchased from Sigma Chemical Co.

[4] = test system: Wilm's tumor, gestational choriocarcinoma, and Kaposi's sarcoma; conditions: cited from earlier work
[5] = test system: human lymphoblastic leukemic cells (CCRF-CEM); experiment: In vitro growth-inhibitory activity against human lymphoblastic leukemic cells (CCRF-CEM) in log phase; assay type: cell-based; conditions: Homo sapiens, final growth medium contained 1% Me2SO, log phase, read-out: ID50 (in vitro growth inhibition, CCRF-CEM)
Procedure: ^b Using human lymohoblastic leukemia cells in logplastic growth.
Compounds were dissolved in Me2 So medium, final growth medium

DNA [6] = conditions: known analogues; cited from earlier work
P-388 leukemia = experiment: In vivo antitumor activity against P-388 lymphocytic leukemia in CDF1 mice; conditions: for % ILS (percent increase in life span) / MST (median survival time) / cure (over 55 day survivors): days 1, 5, 9; for minimal effective dose: Mus musculus, P388, ip, read-out: MED (minimum effective dose, 40% increase in life span over control)
Procedure: Studies on in vivo activity of AMD and AMD analogues were carried out with P-388 lymphocytic leukemia in CDF1 hybrid mice. The drugs were administered either daily for 4 successive days (qd 1-4) or on days 1, 5 and 9 (q4d 1, 5, 9) beginning 1 day after tumor implantation.
^a Male CDF1 (18-23 g) mice were inoculated intraperitoneally
(ip) with 10^6 P388 cells on day 0. Drugs were administered, also ip,
in 10% dimethyl sulfoxidesaline on days 1, 5 and 9. Test solutions were
kept at 0-4° C., protected from light, and the stability and
homogeneity were checked periodically by TLC and HPLC.
^b MST = median survival time.
^c % ILS = percent increase in life span.
^d Over 55 day survivors. Average of three experiments. The
^a Drugs administed ip once daily either for 4 successive days (qd
1-4) or on days 1, 5 and 9 (q4d 1, 5 9), starting 1 day after tumor
^b MED (minimum effective dose) is the dose (milligrams/kilogram)
providing an increase in life span of 40% over control in P388

[7] = cited from earlier work
normal CDF1 male mice = experiment: Maximum tolerated dose (LD10) in normal, tumor-free CDF1 male mice; assay type: in vivo; conditions: deaths during 21 days
Procedure: ^c MTD (maximum tolerated dose) is the lethal dose
(milligrams/kilogram) for 10% normal CDF1 male mice (18-23 g);
were calculated from a plot of log dose vs. percent mortality. Average of
two to three experiments.
Biological Experiments. Determination of LD10 Values. Tumor-free CDF1 male mice weighing 18-23 g were given a broad range of doses of drugs in 10% dimethyl sulfoxide-saline on either days 1, 5 and 9 or on 4 successive days. Drugs were administered intraperitoneally (ip).
The maximum tolerated doses of AMD and analogues that caused deaths in only 10% of the tested animals in 21 days were recorded as MTD. The results are an average of two experiments in each. The MTD values obtained following schedules q4d 1, 5, 9 (three injections) and qd 1-4 (four injections) are recorded in Table IV. These doses are the same as LD10 (lethal dose of 10% of tumor-free animals in 21 days).

proliferating cells = conditions: cited from earlier work
[8] = three injections ip, q4d 1, 5, 9

## Cc1c2oc3c(C)ccc(C(=O)N[C@@H]4C(=O)N[C@H](C(C)C)C(=O)N5CCC[C@H]5C(=O)N(C)CC(=O)N(C)[C@@H](C(C)C)C(=O)O[C@@H]4C)c3nc-2c(C(=O)N[C@@H]2C(=O)N[C@H](C(C)C)C(=O)N3CCC[C@H]3C(=O)N(C)CC(=O)N(C)[C@@H](C(C)C)C(=O)O[C@@H]2C)c(N)c1=O [Compound 1b, Actinomycin D, reference compound] (I: T[dV]P[Sar][NMeV] / II: T[dV]P[Sar][NMeV]; ester I:1-I:C, II:1-II:C; linker I:N-II:N via Actinocin(9to1))
[1]
  inhibition of DNA-dependent RNA synthesis: strongly inhibits
[2]
  pathology of spleen sections: haematopoiesis indicative of bone-marrow toxicity
patients
  toxicity: acute and cumulative toxicity
DNA [3]; drug 1.4 × 10^-4 M, DNA (P) 1.4 × 10^-3 M, 0.01 M phosphate buffer pH 7.0, EDTA, 5% dimethyl sulfoxide
  Tm (ΔTm = Tm of DNA-drug complex minus Tm of DNA): 7.1 ± 0.15 °C
DNA [3]; thermal denaturation, words
  DNA melting profile / ΔTm character of the DNA complex: sharp and smooth
[4]
  activity in several tumors: potent activity
[5]
  IC50: 0.06 µg/mL (≈ 0.0478 µM)
DNA [6]
  mode of DNA binding, same way as AMD: by intercalation of the chromophore and concomitant hydrogen and hydrophobic interactions of the peptide lactones
P-388 leukemia; 0.031 mg/kg ip
  % ILS (percent increase in life span): 18%
  MST (median survival time): 13 days
  cure (over 55 day survivors): 0/7
P-388 leukemia; 0.062 mg/kg ip
  % ILS (percent increase in life span): 45%
  MST (median survival time): 16 days
  cure (over 55 day survivors): 1/7
P-388 leukemia; 0.125 mg/kg ip
  % ILS (percent increase in life span): 136%
  MST (median survival time): 26 days
  cure (over 55 day survivors): 0/7
P-388 leukemia; 0.250 mg/kg ip
  % ILS (percent increase in life span): 55%
  MST (median survival time): 17 days
  cure (over 55 day survivors): 0/7
P-388 leukemia; 0.375 mg/kg ip
  MST (median survival time): 9 days
P-388 leukemia; four injections ip, qd 1-4
  minimal effective dose: 0.05 mg/kg
  therapeutic index: MTD/MED: 3
P-388 leukemia; [8]
  minimal effective dose: 0.0625 mg/kg
  therapeutic index: MTD/MED: 4
P-388 leukemia; ip, q4d 1, 5, 9
  activity in respect of % ILS, 1b versus 2b: approximately equiactive
  breadth of dose-response curve: very narrow
[7]
  in vivo metabolism: not metabolized in vivo
Normal CDF1 male mice; four injections ip, qd 1-4
  MTD (maximum tolerated dose, lethal for 10% of normal mice; = LD10): 0.15 milligrams/kilogram
Normal CDF1 male mice; [8]
  MTD (maximum tolerated dose, lethal for 10% of normal mice; = LD10): 0.25 milligrams/kilogram
Proliferating cells
  cytotoxicity in proliferating cells versus nonproliferating (liver, kidney, muscle): far more cytotoxic in those proliferating cells
